The record followed here is ChEMBL document CHEMBL4680354, “Design, synthesis and biological evaluation of novel indanone containing spiroisoxazoline derivatives with selective COX-2 inhibition as anticancer agents” (Bioorg Med Chem, 2021).

Bounds are passed on as bounds.

Test [1] relates to HT-29. Briefly: Antiproliferative activity against human HT-29 cells assessed as reduction in cell viability incubated for 72 hrs by MTT assay. The class given is functional, cell-based. As to conditions: HT-29, 72 h.
Test [2] deals with T1, Prostaglandin G/H synthase 1 (Ovis aries, UniProt P05979).
T1 sequence (P05979 whole entry): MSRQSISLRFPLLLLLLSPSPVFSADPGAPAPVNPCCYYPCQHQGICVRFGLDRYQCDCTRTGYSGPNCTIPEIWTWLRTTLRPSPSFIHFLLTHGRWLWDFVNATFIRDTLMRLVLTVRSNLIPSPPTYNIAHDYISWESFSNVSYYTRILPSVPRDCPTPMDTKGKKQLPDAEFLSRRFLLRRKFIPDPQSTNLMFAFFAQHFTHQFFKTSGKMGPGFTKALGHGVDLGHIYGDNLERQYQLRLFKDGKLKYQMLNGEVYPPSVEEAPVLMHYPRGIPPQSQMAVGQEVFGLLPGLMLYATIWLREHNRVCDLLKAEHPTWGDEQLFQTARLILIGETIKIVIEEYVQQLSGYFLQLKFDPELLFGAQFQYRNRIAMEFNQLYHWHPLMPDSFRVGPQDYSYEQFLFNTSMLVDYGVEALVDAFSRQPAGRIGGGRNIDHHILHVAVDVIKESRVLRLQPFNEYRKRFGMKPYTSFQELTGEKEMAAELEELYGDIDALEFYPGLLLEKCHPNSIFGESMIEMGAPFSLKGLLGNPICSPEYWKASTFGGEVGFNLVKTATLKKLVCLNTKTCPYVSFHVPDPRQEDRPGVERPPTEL
Nature of the test: Inhibition of Ovine COX-1 by chemiluminescent enzyme method.

Test [3] has as its system MCF-10A. Briefly: Antiproliferative activity against human MCF10A cells assessed as reduction in cell viability incubated for 72 hrs by MTT assay. Type of test: functional, cell-based.
The subject of test [4] is MCF7. Briefly: Antiproliferative activity against human cells MCF-7 assessed as reduction in cell viability incubated for 48 hrs by MTT assay. As to conditions: MCF7, 48 h. Type of test: functional, cell-based. In general terms: Tetrazolium dyes change colour on reduction, which living cells bring about.
For test [5], the system named is HEK293. Briefly: Cytotoxicity against human HEK293 cells assessed as reduction in cell viability incubated for 72 hrs by MTT assay. The class given is cell-based. The following applies: HEK293, 72 h.
Test [6] concerns MCF7. Nature of the test: Antiproliferative activity against human MCF-7 cells assessed as reduction in cell viability incubated for 72 hrs by MTT assay. The class given is functional, cell-based. As to conditions: MCF7, 72 h.
Test [7] deals with MCF7. Briefly: Antiproliferative activity against human cells MCF-7 assessed as reduction in cell viability incubated for 24 hrs by MTT assay. The class given is functional, cell-based. The following applies: MCF7, 24 h.
Test [8] relates to MCF7. Nature of the test: Induction of apoptosis in human MCF7 cells assessed as early apoptotic cells at IC50 measured after 72 hrs by Annexin-V/propidium iodide staining-based flow cytometric analysis (reference value: 1.1%). The class given is functional. A general note: In flow cytometry, cells or beads pass a laser one at a time.
For test [9], the system named is MCF7. Briefly: Induction of apoptosis in human MCF7 cells assessed as necrotic cells at IC50 measured after 72 hrs by Annexin-V/propidium iodide staining-based flow cytometric analysis (reference value: 4.7%). Type of test: functional.
In test [10] the test system is MCF7. Nature of the test: Induction of apoptosis in human MCF7 cells assessed as viable cells at IC50 measured after 72 hrs by Annexin-V/propidium iodide staining-based flow cytometric analysis (reference value: […]). Type of test: functional.
The test system of test [11] is MCF7. Nature of the test: Induction of apoptosis in human MCF7 cells assessed as late apoptotic cells at IC50 measured after 72 hrs by Annexin-V/propidium iodide staining-based flow cytometric analysis (reference value: 92.7%). Type of test: functional.

In general, IC50 refers to the concentration that inhibits the measured activity by half. Consider `CS(=O)(=O)c1ccc(C2C(c3ccc(F)cc3)=NOC23Cc2ccccc2C3=O)cc1` (configuration not stated), for which the IC50 in test [1] was determined as 55.4 µM; in [2] it was 10.8 µM; in test [3], 3.21 µM; in test [4] it was 16.5 µM; in test [5], 0.64 µM; in test [6], 0.14 µM.

On to `CC[C@]1(O)C[C@H]2CN(CCc3c([nH]c4ccccc34)[C@@](C(=O)OC)(c3cc4c(cc3OC)N(C=O)[C@H]3[C@@](O)(C(=O)OC)[C@H](OC(C)=O)[C@]5(CC)C=CCN6CC[C@]43[C@@H]65)C2)C1` [VINCRISTINE], for which the concentration for half-maximal inhibition (IC50) is 1.74 µM in [1], 0.92 µM in test [7] and 0.89 µM in test [6].

Take `COc1ccc(C2=NOC3(Cc4ccccc4C3=O)C2c2ccc(S(C)(=O)=O)cc2)cc1` (configuration not stated): the IC50 in test [1] is 68.5 µM; in [2], 9.89 µM; in test [3], above 100 µM; in test [4], above 100 µM; in test [5], above 100 µM; in [6] it was 0.65 µM.

As for `Cc1ccc(C2=NOC3(Cc4ccccc4C3=O)C2c2ccc(S(C)(=O)=O)cc2)cc1` (configuration not stated), the IC50 is 73 µM in test [1]; 10.1 µM in [2]; above 100 µM in test [3]; 25.7 µM in [4]; 82.4 µM in test [5]; 0.17 µM in test [6].

Consider `CS(=O)(=O)c1ccc(C2C(c3ccccc3)=NOC23Cc2ccccc2C3=O)cc1` (configuration not stated), for which the IC50 in test [1] was 239 µM; in [2] it was 11.4 µM; in test [3], above 100 µM; in test [4], 17.1 µM; in test [5] it was above 100 µM; in test [6] it was 8.53 µM.

On to `Cc1ccc(-c2cc(C(F)(F)F)nn2-c2ccc(S(N)(=O)=O)cc2)cc1` [CELECOXIB], for which the concentration for half-maximal inhibition (IC50) is 18 µM in test [1], 16 µM in [4] and 19.8 µM in test [7].

As to `COc1ccc(C2=NOC3(Cc4ccccc4C3=O)C2c2ccc(S(C)(=O)=O)cc2)cc1OC` (configuration not stated), the Activity in [8] is reported as 37.2%; in test [9] it was 15.6%; in [10] it was 2.5%; in [11], 44.7%. Besides, the IC50 in test [1] was 43.7 µM; in test [2] it was 12.1 µM; in [3] it was above 100 µM; in test [4], 1.03 µM; in [7] it was 10.5 µM; in test [5], above 100 µM. Besides, in test [6], the IC50 was 0.03 µM.

Consider `CS(=O)(=O)c1ccc(C2C(c3ccc(Cl)cc3)=NOC23Cc2ccccc2C3=O)cc1` (configuration not stated), for which the IC50 in [1] was determined as 99.3 µM; in test [2], 9.43 µM; in test [3], 22.5 µM; in test [4], 64.8 µM; in [5], 37.7 µM; in test [6], 1.2 µM.

With `COc1cc(C2=NOC3(Cc4ccccc4C3=O)C2c2ccc(S(C)(=O)=O)cc2)cc(OC)c1OC` (configuration not stated), the 50% inhibitory concentration (IC50) is 112 µM in test [1]; 12.8 µM in test [2]; above 100 µM in test [3]; 3.96 µM in [4]; 17.6 µM in test [7]; 70.8 µM in [5]. For the same molecule, the concentration for half-maximal inhibition (IC50) in test [6] was determined as 0.87 µM.

In the case of `COc1cccc2c1C(=O)c1c(O)c3c(c(O)c1C2=O)C[C@@](O)(C(=O)CO)C[C@@H]3O[C@H]1C[C@H](N)[C@H](O)[C@H](C)O1` [DOXORUBICIN], in [1], the IC50 stood at 1.57 µM.

Regarding `CC[C@]1(O)C[C@@H]2CN(CCc3c([nH]c4ccccc34)[C@@](C(=O)OC)(c3cc4c(cc3OC)N(C)[C@H]3[C@@](O)(C(=O)OC)[C@H](OC(C)=O)[C@]5(CC)C=CCN6CC[C@]43[C@@H]65)C2)C1` [VINBLASTINE], the IC50 in [1] came out at 3.18 µM; in test [7], 0.23 µM.
